According to patent US9233954B2, “Organic amine salts of Azilsartan, preparation method and use thereof” (Jiangsu Hansoh Pharmaceutical Co., Ltd., priority 2011, dated 2016):
Where two headings read alike, the source gives them in different places.

Key:
[1] = test system: blood pressure of SHR rats; assay: Antihypertensive effect test for spontaneously hypertensive (SHR) rats; format: in vivo; conditions: 10 mg/kg
Method: Antihypertensive Effect Test For Spontaneously Hypertensive (SHR) Rats
38 of 25 week old SHR male rats were randomly divided into 4 groups according to the initial blood pressure, with 6 for the control group (solvent) and 8 for other groups. 10 mg/kg of example 2 compound (Choline Azilsartan), example 4 compound (Azilsartan ethanolamine salts) and control (Azilsartan medoxomil potassium salt) were continuously administered, respectively. The solvent control group was administered solvent. The administration volume was 5 ml/kg and the period was 2 weeks.

[2] = test system: Beagle dog; format: in vivo; conditions: for Clinical observations: intragastric
Source text: Acute Toxicity Test Research for Beagle Dog
Object: Approximate lethal dose method was introduced in the test to observe the acute toxicity response of the animals by intragastric administration of example 2 or Azilsartan medoxomil potassium salt to Beagle dogs to study the toxicity situation of example 2 after administration and compare the toxicity of example 2 and Azilsartan medoxomil potassium salt, which can provide reference confirmation for the evaluation of toxicity of example 2.
Method (approximate lethal dose method): 6 Beagle dogs were used, 3 for each of example 2 group and Azilsartan medoxomil potassium salt group. The administration dosage was 0.09, 0.13, 0.19, 0.28, 0.42, 0.63, 0.95, 1.42, 2.13, 3.20 g·kg^−1 respectively, wherein 3.20 g·kg^−1 was the maximum administration dosage (corresponding to 1081 times the given dosage for the clinical patient). The blood was collected before administration and on days 2, 7, and 14 after administration to test the corresponding biochemical indicators. Electrocardiogram, body weight, and body temperature were determined before administration and on days 7 and 14 after administration.

[3] = Hygroscopicity test; format: physicochemical; conditions: 25° C.±1° C., RH 80%±2%, 24 h
Method: 1. A dried glass weighing bottle (Outer diameter […]) with a plug was put into an artificial climate box under the temperature of 25° C.±1° C. and relative humidity (RH) of 80%±2% the day before and then weighed precisely (m1).
2. The testing sample was weighed precisely (m2) and lain into the weighing bottle. The thickness of the test sample was about 1 mm.
3. The uncovered weighing bottle and its plug were placed under the above constant temperature and humidity conditions for 24 h.
4. The weighing bottle was covered and weighed precisely (m3).
Calculation formula: Percent of weight increase=(m3−m2)/(m2−m1)*100%
5. Definition of the weight increase of the hygroscopicity
Deliquescence: absorbing enough water to form liquid.
High hygroscopicity: the weight increase of the hygroscopicity is no less than 15%
Having hygroscopicity: the weight increase of the hygroscopicity is between 15% and 2%
Slight hygroscopicity: the weight increase of the hygroscopicity is between 2% and 0.2%
No or almost no hygroscopicity: the weight increase of the hygroscopicity is less than 0.2%

[4] = rat, in vivo, po
Method: Drug Metabolism Test of Sprague Dawley (SD) Rats after Administration
Twelve SD rats that weighed 200-250 g were randomly divided into two groups with each group having 6 rats, half male and half female. […] 0.5 ml blood were collected from orbit before administration and at 0.5, 1.0, 2.0, 3.0, 4.0, 5.0, 7.0, 10, 24 and 48 h after administration. Plasma concentration of Azilsartan (TAK-536), M1 (product of decarboxylation of Azilsartan) and M2 (product of O-dealkylation) was measured.

[5] = Beagle dog, intragastric administration
[6] = all of the animals in the group, 1.42-3.20 g·kg^−1

In the case of `CCOc1nc2cccc(C(=O)O)c2n1Cc1ccc(-c2ccccc2-c2noc(=O)[nH]2)cc1.CCOc1nc2cccc(C(=O)[O-])c2n1Cc1ccc(-c2ccccc2-c2noc(=O)[nH]2)cc1.C[N+](C)(C)CCO` [Example 2], the “Antihypertensive effect compared with control (Azilsartan medoxomil potassium salt)” value ([1]; SHR rats, 2 weeks) is reported as “superior to the antihypertensive effect of control”, the “Antihypertensive effect, ranking under the same dosage” value ([1]; SHR rats, 2 weeks) is reported as “optimal” and the “Effect on blood pressure of SHR rats compared with solvent control” value ([1]; continuously administered for one or two weeks, FIG. 4) is reported as “reduce the blood pressure of SHR rats significantly”. For the same compound, the Dissection findings ([2]; 1.42 g·kg^−1 dosage group) was “the stomach was filled and contained amounts of particle food; the cardiac mucosa was red and showed sporadic red dot; other viscera did not show anomalies”, the Clinical observations ([2]; 1.42 g·kg^−1 dosage group, Beagle dog) was “liquid stools and less moving, moving reduction on day 2 after administration, the moving recovered to normal on day 3 and no abnormality was observed after day 3” and the Clinical observations ([2]; 2.13 g·kg^−1 dosage group, Beagle dog) was “on the day of administration no abnormality was observed and the animals showed vomit, moving reduction on day 2 after administration, loose stools and moving recovered on day 3, and the excreta recovered to normal on day 4 and no abnormality observed after day 4”. For the same compound, the Dissection findings ([2]; 2.13 g·kg^−1 dosage group, day 15) was “the stomach was filled and contained amounts of particle food; the cardiac mucosa was red and showed sporadic red dot; other viscera did not show anomalies”, the Blood biochemical indicators ([2]; 3.20 g·kg^−1 dosage) was “ALT of dogs with 3.20 g·kg^−1 dosage was increased on day 2 and recovered to normal on day 7” and the Fib ([2]; 3.20 g·kg^−1 dosage) was “increased significantly on day 2 after administration”. For the same compound, the “Histopathology (HE, light microscope)” value ([2]; 3.20 g·kg^−1 dosage group) was “did not show obvious anomalies”, the Clinical observations ([2]; 3.20 g·kg^−1 dosage group, Beagle dog) was “loose stools, liquid stools, vomit until the end of the observation and showed liquid stools, moving reduction on day 2 after administration, showed loose stools on day 3 and the moving recovered, the excreta recovered to normal on day 4 and no abnormality observed after that” and the “Systolic blood pressure and diastolic blood pressure” value ([2]; 5 animals of the two groups together) was “reduced more or less on day 2 after administration”. The “Acute toxicity, comparison” value [2, 5] was “lower than that of Azilsartan medoxomil potassium salt”, the Approximate lethal dose [2, 5] was “more than 3.20 g·kg^−1” and the Body temperature [2, 6] was “no abnormality on day 7 after administration”. The Body weight [2, 6] was “decreased on day 7 after administration compared with pre-administration”, the “Electrocardiogram and haematological indicators” value [2, 6] was “not abnormal on day 7 after administration” and the PT values ([2]; all the animals of the group, after vs. pre-administration) was “reduced significantly after administration compared to pre-administration”. The Blood biochemical indicators ([2]; all the dogs of the group (1.42, 2.13, 3.20 g·kg^−1)) was “CRE, UREA and UA of all the dogs administered Example 2 compound were increased significantly on day 2 after administration, the CRE and UA increased significantly on day 7 after administration, and they recovered to normal on day 14”, the “Hygroscopicity (percent of weight increase)” value [3] was 0.02% and the “Conclusion (hygroscopic or not)” value ([3]; listed as Example 2 Compound) was “No”. The “Conclusion (hygroscopic or not)” value ([3]; listed as example 2 compound) was “not hygroscopic”, the “Increase of AUC of Azilsartan acid in the plasma” value [4] was 70% and the “Increase of Cmax of Azilsartan acid in the plasma” value [4] was 98%.
